# Values joined by “and” are separate entries in the source; they are usually repeats but may differ in a detail not shown here. Equal values may be shown once.
# How the values were obtained:
# [1] = tested on: Enterobacter cloacae ATCC BAA-1143; experiment: MIC against E. cloacae in LB broth; assay type: cell-based; conditions: ATCCBAA1143, 16 h
# Procedure: (§1) Overnight cultures were diluted 1:150 in LB broth and added to a 96-well plate. Antibiotics were serially diluted 1:2 and added to columns of the 96-well plate and grown at 37 °C with continuous shaking. Cell growth was measured using optical density at 600 nm (OD600). MIC assays were performed in either BioTek Synergy HT or Tecan InfiniteM200 Pro microplate readers.
# [2] = tested on: Acinetobacter baumannii BAA-125; experiment: MIC against A. baumannii BAA-125 in LB broth; assay type: cell-based; conditions: BAA125, 16 h, 37 °C, OD600
# Procedure: as §1
# [3] = tested on: P. aeruginosa PA14 nfxB mutants; experiment: MIC against fluorofolin-resistant PA14 nfxB mutants in liquid culture; assay type: cell-based; conditions: Pseudomonas aeruginosa
# Procedure: as §1
# Resistant mutants were maintained as a frozen stock.
# [4] = tested on: P. aeruginosa PA14 mexS L46F mutant; experiment: MIC against fluorofolin-resistant PA14 mexS L46F mutant; assay type: cell-based; conditions: Pseudomonas aeruginosa
# Procedure: as §1
# Single colonies were picked and inoculated into fresh LB broth. This process was repeated for a total of ten passages. At each passage, the MIC was recalculated and compared to a culture that had not been previously exposed to fluorofolin, which was also grown as a control to confirm antibiotic potency. Cells from each passage were stored as a frozen stock.
# ESKAPE pathogens = experiment: Growth inhibition of P. aeruginosa PA01, ATTC 27853 and ESKAPE pathogens (MIC panel); assay type: cell-based; conditions: P. aeruginosa PA01 and ATTC 27853 and all 5 ESKAPE pathogens tested
# Procedure: as §1
# Bacterial colonies (4–8) of strains of interest were vortexed in saline and adjusted to an OD600 of 0.2. Strains were diluted 1:200 into CAMHB media in 96-well plates. Antibiotics were serially diluted 1:3 in DMSO, and 1 μl of each dilution was added to bacteria. The plates were incubated for 18–20 h at 37 °C before observation.
# Haemolysis = assay type: cell-based, sheep; conditions: sheep, defibrinated sheep red blood cells, 1 h, vs Triton X-100 100% lysis
# Procedure: (§2) Samples were treated at 37 °C with shaking for 1 h and then centrifuged. Supernatants were collected and absorbances were measured at 405 nm in a Tecan InfiniteM200 Pro microplate reader.
# sheep red blood cells = experiment: Haemolysis; assay type: cell-based; conditions: biologically relevant concentrations
# Procedure: as §2
# [5] = tested on: HK-2 (human kidney epithelial); experiment: Mammalian cell cytotoxicity, HK-2; assay type: cell-based; conditions: 72 h, CyQUANT, read-out: IC50 Fluorofolin
# Procedure: HK-2 (500 cells per well) (ATCC CRL-2190), HLF (500 cells per well) (Cell Applications 506K-05a), WI-38 (500 cells per well) (ATCC CCL-75) or PBMC (5,000 cells per well) (TPCS PB010C) cells were seeded in white opaque 384-well plates. After 24 h, DMSO or compounds were added in 3-fold dilutions and cells incubated for 72 h. For PBMC, CellTiter-Glo reagent was added in equal volume and incubated for 30 min, after which luminescence was read. For other cell types, CyQUANT detection reagent was added in equal volume and cells incubated for 1 h, after which fluorescence was read with standard green filter set […]. Cell toxicity was evaluated by Pharmaron.
# [6] = Pharmacokinetic analysis after single oral dose; assay type: in vivo, mouse
# Procedure: For pharmacokinetics determination, care and handling of male CD-1 mice approximately 6–8 weeks old conformed to institutional animal care and use policies as carried out at Pharmaron.
# Pharmacokinetic properties were determined after a single dose of 200 mg kg^−1 fluorofolin given orally (PO). Plasma samples were taken from three mice at times 0.083, 0.25, 0.5, 1, 2, 4, 8 and 24 h, and quantitative analysis was performed using LC–MS/MS. Half-life was determined from plasma concentration after fluorofolin levels reached pseudo-equilibrium (4 h for mouse 1 and 2, and 2 h for mouse 3). Pharmacokinetic values were estimated using a non-compartmental model generated from WinNonlin 6.1. Pharmacokinetic analysis was carried out by Pharmaron.
# PA14 = experiment: Checkerboard assay fluorofolin / sulfamethoxazole; assay type: cell-based, Pseudomonas aeruginosa; conditions: for FIC index: PA14, SMX 0.000 ug/mL
# Procedure: Cells were seeded in a similar manner as described above for MIC calculations. […] Fractional inhibitory concentrations (FICs) were calculated as [[…], where [fluorofolin] and [SMX] are the concentrations of compounds in a given well, which were divided by the concentration of drug at the MIC for each compound.
# P. aeruginosa PA14 = experiment: Growth competition assay, c.f.u. of P. aeruginosa PA14; assay type: cell-based, Pseudomonas aeruginosa
# Procedure: Cultures of each species were grown separately as well as being mixed 1:1. […] The number of colonies on Pseudomonas Selection Agar plates is reported as the c.f.u. ml^−1 of P. aeruginosa. To calculate c.f.u.s ml^−1 of E. coli MG1655, c.f.u.s ml^−1 were determined from LB agar plates and the c.f.u.s ml^−1 of P. aeruginosa were subtracted from these values.
# [7] = CD-1 mice, 200 mg/kg PO, mean of three mice
# [8] = male, mouse, plasma, CD-1 mice, 200 mg/kg PO, mean of three mice
smiles,measurement,setting,value
Nc1nc(N)c2c(ccc3c2ccn3Cc2ccnc(F)c2)n1 [fluorofolin],MIC,[1],12.5 µg/mL
same,MIC,[2],31.2 µg/mL
same,MIC,[3],> 100 µg/mL
same,MIC,[4],62.5 µg/mL
same,concentration inhibiting growth,ESKAPE pathogens,less than 50 µg ml^−1
same,"hemolysis at 1 h, 0.78125 ug/mL",Haemolysis; 0.78125 ug/mL,0.966%
same,"hemolysis at 1 h, 1.5625 ug/mL",Haemolysis; 1.5625 ug/mL,0.655%
same,"hemolysis at 1 h, 3.125 ug/mL",Haemolysis; 3.125 ug/mL,-0.334%
same,"hemolysis at 1 h, 6.25 ug/mL",Haemolysis; 6.25 ug/mL,0.353%
same,"hemolysis at 1 h, 12.5 ug/mL",Haemolysis; 12.5 ug/mL,-0.799%
same,"hemolysis at 1 h, 25 ug/mL",Haemolysis; 25 ug/mL,-0.239%
same,"hemolysis at 1 h, 50 ug/mL",Haemolysis; 50 ug/mL,13.7%
same,permeabilization of red blood cell membranes,sheep red blood cells,did not cause significant permeabilization
same,IC50,[5],51.7 µg/mL
same,plasma concentration,"[6]; 0.083 h after 200 mg kg^−1 PO, one value per mouse",1290 ng/mL and 1470 ng/mL
same,plasma concentration,"[6]; 0.25 h after 200 mg kg^−1 PO, one value per mouse",2880 ng/mL and 2500 ng/mL
same,plasma concentration,"[6]; 0.5 h after 200 mg kg^−1 PO, one value per mouse",3070 ng/mL and 2970 ng/mL
same,plasma concentration,"[6]; 1 h after 200 mg kg^−1 PO, one value per mouse",3980 ng/mL and 3260 ng/mL
same,plasma concentration,"[6]; 2 h after 200 mg kg^−1 PO, one value per mouse",4080 ng/mL and 3760 ng/mL
same,plasma concentration,"[6]; 4 h after 200 mg kg^−1 PO, one value per mouse",4460 ng/mL and 3060 ng/mL
same,plasma concentration,"[6]; 8 h after 200 mg kg^−1 PO, one value per mouse",2580 ng/mL and 1400 ng/mL
same,plasma concentration,"[6]; 24 h after 200 mg kg^−1 PO, one value per mouse",430 ng/mL and 287 ng/mL and 1740 ng/mL
same,AUC_% Extrap_obs,[6]; [7],23.3970%
same,AUC_last/D,[6]; [7],231.6700 h*ng/mL per mg/kg
same,T1/2,"[6]; CD-1 mice, 200 mg/kg PO, mean of three mice, 200 mg/kg",12.1050 h
same,concentration at 0.083 h,"[6]; male, CD-1, mouse, plasma, po, 200 mg kg^−1, 0.083 h after 200 mg kg^−1 PO, one value per mouse",880 ng/mL
same,concentration at 0.25 h,"[6]; male, CD-1, mouse, plasma, po, 200 mg kg^−1, 0.25 h after 200 mg kg^−1 PO, one value per mouse",2220 ng/mL
same,concentration at 0.5 h,"[6]; male, CD-1, mouse, plasma, po, 200 mg kg^−1, 0.5 h after 200 mg kg^−1 PO, one value per mouse",2810 ng/mL
same,concentration at 1 h,"[6]; male, CD-1, mouse, plasma, po, 200 mg kg^−1, 1 h after 200 mg kg^−1 PO, one value per mouse",2930 ng/mL
same,concentration at 2 h,"[6]; male, CD-1, mouse, plasma, po, 200 mg kg^−1, 2 h after 200 mg kg^−1 PO, one value per mouse",3640 ng/mL
same,concentration at 4 h,"[6]; male, CD-1, mouse, plasma, po, 200 mg kg^−1, 4 h after 200 mg kg^−1 PO, one value per mouse",3460 ng/mL
same,concentration at 8 h,"[6]; male, CD-1, mouse, plasma, po, 200 mg kg^−1, 8 h after 200 mg kg^−1 PO, one value per mouse",1640 ng/mL
same,half-life,"[6]; male, CD-1, mouse, plasma, po, 200 mg/kg, CD-1 mice, 200 mg/kg PO, mean of three mice",12.1 h
same,AUC(0-inf),[6]; [8],68800 ng·h/mL
same,AUC(0-t),[6]; [8],46300 ng·h/mL
same,Cmax,[6]; [8],3950 ng/mL
same,Tmax,[6]; [8],2.67 h
same,MRT inf,"[6]; male, mouse, plasma, CD-1 mice, 200 mg/kg PO, mean of three mice, read-out: MRT_Inf_obs",18.2 h
same,peak concentration,"[6]; mice, oral administration",4.0 µg/mL
same,FIC index,PA14; Fluorofolin 3.125 ug/mL,1
same,FIC index,PA14; Fluorofolin 6.25 ug/mL,2
same,FIC index,PA14; Fluorofolin 12.5 ug/mL,4
same,FIC index,PA14; Fluorofolin 25 ug/mL,8
same,MIC,"PA14; Pseudomonas aeruginosa, PA14, read-out: MIC of fluorofolin in the presence of SMX",0.4 µg/mL
same,growth in co-culture with TMI supplementation,"P. aeruginosa PA14; PA14 : E. coli MG1655 1:1, 50 μg ml^−1 fluorofolin, selective plating",selectively inhibited the growth of P. aeruginosa
same,P. Aeruginosa PA14 CFU/mL,"P. aeruginosa PA14; Panel C, Fluorofolin",39 CFU/mL and 46 CFU/mL and 40 CFU/mL

# Reference: paper PMC11087268, “A folate inhibitor exploits metabolic differences in Pseudomonas aeruginosa for narrow-spectrum targeting” (Nature Microbiology, 2024)
